The results in this text go back to patent publication US20110152087A1, “Herbicidal compositions comprising flufenacet” (Bayer CropScience AG, priority 2009, published 2011).

Molecules are shown by their SMILES.

What all share (format): in vivo
Series [1] deals with TRZAS=Triticum aestivum, summer wheat=crop plant. In words: Greenhouse trial, selective post-emergence action on crop plants (test method 2). The protocol: (§1) In the standard design of the test, seeds of various broad-leaved weed and weed grass biotypes (origins) were sown in a 8-13 cm diameter pot filled with natural soil of a standard field soil (loamy silt; non-sterile) and covered with a covering soil layer of about 1 cm. The pots were then cultivated in a greenhouse (12-16 h of light, temperature day 20-22° C., night 15-18° C.) until the time of application. The pots were treated on a laboratory track sprayer with spray liquors comprising the compositions according to the invention, mixtures of the prior art or components used individually. Application of the active compounds or active compound combinations formulated as WG, WP, EC or otherwise was carried out at the appropriate growth stages of the plants. The application rate for the spray application was 100-600 l of water/ha. After the treatment, the plants were returned to the greenhouses.
(§2) About 3 weeks after the application, the soil action or/and foliar action was assessed visually according to a scale of 0-100% in comparison to an untreated comparative group: 0%=no noticeable effect compared to the untreated comparative group; 100%=full effect compared to the untreated comparative group.
(§3) (notes: the term “seeds” also includes vegetative propagation forms such as, for example, rhizome pieces; abbreviations used: h light=hours of illumination, g of AS/ha=gram of active substance per hectare, l/ha=liter per hectare, S=sensitive, R=resistant) • 1. Post-emergence action against weeds: seeds of various broad-leaved weed and weed grass biotypes (origins) were sown in a 8-13 cm diameter pot filled with natural soil of a standard field soil (loamy silt; non-sterile) and covered with a covering soil layer of about 1 cm. The pots were then cultivated in a greenhouse (12-16 h of light, temperature day 20-22° C., night 15-18° C.) until the time of application. The pots were treated at various BBCH stages between 11-25 of the seeds/plants, i.e. generally between two to three weeks after the start of the cultivation, on a laboratory track sprayer with spray liquors comprising the compositions according to the invention, mixtures or components used individually, as WG, WP, EC or other formulations. The application rate for the spray application was 100-600 l of water/ha. After the treatment, the plants were returned to the greenhouses and, when required, treated with fertilizer and watered. • 2. Selective post-emergence action: seeds of various crop species (origins) were sown in a 8-13 cm diameter pot filled with natural soil of a standard field soil (loamy silt; non-sterile) and covered with a covering soil layer of about 1 cm. The pots were then cultivated in a greenhouse (12-16 h of light, temperature day 20-22° C., night 15-18° C.) until the time of application. The pots were treated at various BBCH stages between 11-32 of the seeds/plants, i.e. generally between two to four weeks after the start of the cultivation, on a laboratory track sprayer with spray liquors comprising the compositions according to the invention, mixtures or components used individually, as WG, WP, EC or other formulations. The application rate for the spray application was 100-600 l of water/ha. After the treatment, the plants were returned to the greenhouses and, when required, treated with fertilizer and watered. The pots were cultivated in a greenhouse (12-16 h light, temperature day 20-22° C., night 15-18° C.).
(§4) E=(A+B+C)−(A×B+A×C+B×C)/100+(A×B×C)/10 000 • in which: • A, B, C=each the activity of the components A or B or C in percent at a dosage of a or b gram of AS/ha; • E^C=expected value according to Colby in % at a dosage of a+b gram of AS/ha. • Δ=difference (%) of measured value−%-to expected value−%-(measured value minus expected value) • Δ^D=difference (%) of the measured value of an observation A−%-to the measured value of an observation B−%. […]

The subject of series [2] is TRZAW=Triticum aestivum, winter wheat=crop plant. The series is described as above. How it is done: as §1, §2, §3, §4
Series [3] concerns ALOMY=Alopecurus myosuroides=weed. In words: Greenhouse trial, post-emergence action against weeds (test method 1). Particulars: PO application, about 3 weeks after application; g of AS/ha: flufenacet 120, diclofop 378, diflufenican 120, mixture 120+378+120. How it is done: as §1, §2, §3, §4
Series [4] deals with STEME=Stellaria media=weed. The description is as above. Particulars: PO application, about 3 weeks after application; g of AS/ha: flufenacet 120, diclofop 378, diflufenican 120, mixture 120+378+120. The protocol: as §1, §2, §3, §4
The subject of series [5] is APESV=Apera Spica-venti=weed. Described as above. To be noted: PO application, about 3 weeks after application; g of AS/ha: flufenacet 120, diclofop 378, diflufenican 120, mixture 120+378+120. How it is done: as §1, §2, §3, §4
Setting [6] is: PO application, about 3 weeks after application, g of AS/ha: flufenacet 120, diclofop 378, diflufenican 120, mixture 120+378+120.

As for `CC(Oc1ccc(Oc2ccc(Cl)cc2Cl)cc1)C(=O)O` (racemic) [(B) diclofop, (±)-2-[4-(2,4-dichlorophenoxy)phenoxy]propanoic acid], the “action on crop plant TRZAS, visual assessment on scale 0-100% versus untreated” value in series [1] (setting [6]) is recorded as 10%. Moreover, in series [2] (setting [6]), the “action on crop plant TRZAW, visual assessment on scale 0-100% versus untreated” value is given as 20%. The “activity ALOMY, visual assessment on scale 0-100% versus untreated” value in series [3] turned out to be 15%. Besides, the “activity STEME, visual assessment on scale 0-100% versus untreated” value in series [4] was 0%. Besides, in series [5], the “activity APESV, visual assessment on scale 0-100% versus untreated” value is 0%.

As to `CC(C)N(C(=O)COc1nnc(C(F)(F)F)s1)c1ccc(F)cc1` [(A) flufenacet, N-(4-fluorophenyl)-N-(1-methylethyl)-2-[[5-(trifluoromethyl)-1,3,4-thiadiazol-2-yl]oxy]acetamide], in series [1] (in vivo, po), the “action on crop plant TRZAS, visual assessment on scale 0-100% versus untreated” value was 40%. In addition, the “action on crop plant TRZAW, visual assessment on scale 0-100% versus untreated” value in series [2] (in vivo, po) is 50%. In addition, the “activity ALOMY, visual assessment on scale 0-100% versus untreated” value in series [3] is on record as 65%. In addition, the “activity STEME, visual assessment on scale 0-100% versus untreated” value in series [4] was 30%. Moreover, in series [5], the “activity APESV, visual assessment on scale 0-100% versus untreated” value was 60%.

For `O=C(Nc1ccc(F)cc1F)c1cccnc1Oc1cccc(C(F)(F)F)c1` [(C) diflufenican, N-(2,4-difluorophenyl)-2-[3-(trifluoromethyl)phenoxy]-3-pyridinecarboxamide], the “action on crop plant TRZAS, visual assessment on scale 0-100% versus untreated” value in series [1] (setting [6]) was 5%. For the same molecule, in series [2] (setting [6]), the “action on crop plant TRZAW, visual assessment on scale 0-100% versus untreated” value was determined as 5%. For the same molecule, the “activity ALOMY, visual assessment on scale 0-100% versus untreated” value in series [3] is on record as 10%. The “activity STEME, visual assessment on scale 0-100% versus untreated” value in series [4] was found to be 30%. Also, the “activity APESV, visual assessment on scale 0-100% versus untreated” value in series [5] came to 5%.
